Results on two molecules are retold here after paper PMC10060569 (Frontiers in Pharmacology, 2023).

For this test, the target named is T1, hP2X7R (Homo sapiens, UniProt Q99572).
T1 construct: expressed in transfected cells; host or cells: Xenopus laevis oocytes (cRNA injection)
T1 sequence (Q99572 1-595): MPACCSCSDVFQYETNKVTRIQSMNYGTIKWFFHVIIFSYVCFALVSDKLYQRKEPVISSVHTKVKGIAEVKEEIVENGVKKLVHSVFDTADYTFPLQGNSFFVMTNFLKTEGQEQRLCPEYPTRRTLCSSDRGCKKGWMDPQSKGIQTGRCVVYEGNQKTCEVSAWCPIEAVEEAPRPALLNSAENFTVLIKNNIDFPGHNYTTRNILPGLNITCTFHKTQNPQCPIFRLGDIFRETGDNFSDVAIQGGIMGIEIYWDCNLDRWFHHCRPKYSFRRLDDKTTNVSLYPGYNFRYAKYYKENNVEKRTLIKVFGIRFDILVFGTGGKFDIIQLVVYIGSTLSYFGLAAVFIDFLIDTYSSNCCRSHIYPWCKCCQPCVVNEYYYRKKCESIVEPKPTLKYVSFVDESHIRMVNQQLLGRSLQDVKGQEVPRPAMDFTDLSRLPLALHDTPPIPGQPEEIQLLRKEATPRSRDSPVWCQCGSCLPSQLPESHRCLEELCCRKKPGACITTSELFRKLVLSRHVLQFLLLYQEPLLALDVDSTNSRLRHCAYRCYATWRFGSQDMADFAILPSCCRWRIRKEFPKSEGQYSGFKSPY
Put plainly: TEVC of ATP4--induced currents, hP2X7R in X. laevis oocytes (modified steady-state protocol). Type of test: cell-based. The note with it: for pIC50: estimated from few tested concentrations. The method, then: Ion currents mediated by P2X receptors were evoked by the indicated concentration of ATP or α,β-meATP and were recorded 1 or 2 days after cRNA injection at ambient temperature at a holding potential of −60 mV by two-electrode voltage clamp (TEVC) as previously described ([Hausmann et al., 2006]). Calcium-free ORi^− solution (90 mM NaCl, 1 mM KCl, 2 mM MgCl2, 10 mM HEPES, pH 7.4) was used to avoid bias due to calcium-activated chloride channels (CaCC) endogenously expressed in X. laevis oocytes ([Miledi, 1982]; [Methfessel et al., 1986]). For recordings of wt-hP2X7R, the composition of the ORi^− solution was modified according to protocols described previously and contained 100 mM NaCl, 2.5 mM KCl, 1 mM MgCl2, 5 mM HEPES, pH 7.4 ([Klapperstück et al., 2000]). The oocytes were continuously superfused with ORi^− by gravity flow (5–10 ml/min). The agonists ATP or α,β-meATP and the investigated NSAIDs were diluted in ORi^− on the day of the recording. The following agonist concentrations were used for the different P2X subtypes: 1 μM ATP (hP2X1R mutant, hP2X3R, rP2X3R, S^15V-hP2X3R, and S^15V-rP2X3R); 10 μM ATP (hP2X2R and hP2X4R); 300 μM free ATP^4- (hP2X7R); and 1 μM α,β-meATP (hP2X2/3R). A peak current protocol (Supplementary Figure S1) was used to analyze fast- and intermediate desensitizing P2XR subtypes (P2X1R, P2X3R, and S^15V-P2X3R), and a steady-state protocol (Supplementary Figure S2) was used for slowly or partially desensitizing P2X subtypes (P2X2R, P2X2/3R, and P2X4R). For recordings of P2X7R, a modified steady-state protocol was used ([Hausmann et al., 2006]). The application of different bath solutions was controlled by computer-operated magnetic valves controlled by the CellWorks E 5.5.1 software (npi electronic, Tamm, Germany).
In the case of hP2X7R, the control current in the absence of the antagonist had to be extrapolated (Supplementary Figure S4 and Supplementary Figure S5) presuming a linear increase in permeability during continuous ATP application ([North, 2002]) since the permeability of the receptor is affected by the antagonist.
For recordings of P2X7R, most scientists use divalent-free solutions such as ORi supplemented with 100 µM flufenamic acid (FFA) as an unselective ion channel blocker to inhibit non-specific chloride conductance in the absence of divalent ions ([Weber et al., 1995]; [Hülsmann et al., 2003]). However, since FFA is one of the investigated NSAIDs, this supplement was not reasonable. Therefore, the composition of the ORi-solution was modified as follows: 100 mM NaCl, 2.5 mM KCl, 1 mM MgCl2, 5 mM HEPES, pH 7.4, and according to former protocols ([Klapperstück et al., 2000]), a free ATP^4−concentration of 300 µM was adjusted.

pIC50: −log10 of the molar value.

By pIC50 is commonly meant the negative decadic logarithm of the IC50, by convention in mol/L.

`O=C(O)Cc1ccccc1Nc1c(Cl)cccc1Cl` [Diclofenac, diclofenac]: the “reduction of ATP4--induced current amplitude by 300 µM diclofenac” value (300 µM diclofenac, 300 µM free ATP4-) is “approximately 33%”. Further, the pIC50 (300 µM free ATP4-) was below 3.52.

Consider `O=C(O)c1ccccc1Nc1cccc(C(F)(F)F)c1` [Flufenamic acid, flufenamic acid], for which, where the note is “300 µM free ATP4-”, the pIC50 is around 3.05. Also, the “reversibility of the effect on hP2X7R-mediated current responses” value (slope of current before and after FFA application) is given as “potentially irreversible”.
